From patent publication US10100064B2, “Purine inhibitors of human phosphatidylinositol 3-kinase delta” (Merck Sharp & Dohme Corp., priority 2014, dated 2018)

What was measured:
PI3Kdelta = molecular target: T1, PI3Kdelta (Homo sapiens, UniProt O00329); experiment: HTRF PI3K biochemical assay, delta isoform; details: 0.3 nM enzyme, 100 uM ATP, 5 uM PIP2, form screened (Neutral or TFA salt) given per compound
T1 construct: purchased Upstate; Millipore 14-604
Outline: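 PI3Kδ at 0.3 nM with 100 uM ATP and 5 uM PIP2, 10-point 3-fold dilutions, 15 min enzyme–compound pre-incubation, then 1 h reaction at room temperature. PIP3 formation detected by HTRF displacement of biotin-PIP3 from GST-GRP1-PH (665/620 nm ratio). IC50 corrected using a PIP3 standard curve.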

PI3Kalpha = molecular target: T2, PI3Kalpha (Homo sapiens, UniProt P42336); experiment: HTRF PI3K biochemical assay, alpha isoform (selectivity versus delta); details: relative ratio PI3K-alpha IC50 value / PI3K-delta IC50 value
T2 construct: purchased Upstate; Millipore 14-602
Outline: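 Recombinant PI3Kα (0.5 nM) pre-incubated 15 min with compound, then reacted 1 h at room temperature with 5 μM PIP2 and 100 μM ATP. After EDTA stop, PIP3 measured by HTRF displacement of biotin-PIP3 from GST-GRP1 PH domain (665/620 nm). 10-point dose response; IC50 corrected using a PIP3 standard curve.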

T1 sequence (O00329 whole entry, canonical isoform): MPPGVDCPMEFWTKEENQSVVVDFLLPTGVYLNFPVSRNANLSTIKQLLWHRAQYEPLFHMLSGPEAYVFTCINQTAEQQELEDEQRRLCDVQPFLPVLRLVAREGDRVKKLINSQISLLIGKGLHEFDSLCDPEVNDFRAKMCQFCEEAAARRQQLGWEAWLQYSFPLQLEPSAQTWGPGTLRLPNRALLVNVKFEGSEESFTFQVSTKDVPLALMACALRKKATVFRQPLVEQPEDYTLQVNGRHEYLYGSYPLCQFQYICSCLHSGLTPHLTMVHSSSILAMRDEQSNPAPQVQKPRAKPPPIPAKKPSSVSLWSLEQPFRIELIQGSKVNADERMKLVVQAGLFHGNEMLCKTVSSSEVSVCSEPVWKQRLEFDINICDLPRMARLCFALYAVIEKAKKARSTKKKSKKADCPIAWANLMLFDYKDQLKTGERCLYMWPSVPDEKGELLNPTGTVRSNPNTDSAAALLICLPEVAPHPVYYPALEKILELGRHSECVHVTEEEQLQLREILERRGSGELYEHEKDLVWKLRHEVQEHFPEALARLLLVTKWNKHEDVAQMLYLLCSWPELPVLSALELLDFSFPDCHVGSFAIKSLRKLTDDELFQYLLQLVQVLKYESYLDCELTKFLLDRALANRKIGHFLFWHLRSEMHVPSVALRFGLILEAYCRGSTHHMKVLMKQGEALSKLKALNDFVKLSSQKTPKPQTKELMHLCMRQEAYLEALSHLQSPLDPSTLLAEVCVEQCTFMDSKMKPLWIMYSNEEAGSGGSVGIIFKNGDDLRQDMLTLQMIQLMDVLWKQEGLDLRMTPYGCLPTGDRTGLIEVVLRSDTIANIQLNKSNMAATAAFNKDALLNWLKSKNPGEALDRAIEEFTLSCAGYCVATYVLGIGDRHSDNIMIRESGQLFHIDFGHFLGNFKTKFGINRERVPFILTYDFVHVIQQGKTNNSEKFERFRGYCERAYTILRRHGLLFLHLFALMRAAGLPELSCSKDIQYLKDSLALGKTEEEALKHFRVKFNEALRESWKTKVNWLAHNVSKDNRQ
T1 sequence (P27986 whole entry partner, canonical isoform): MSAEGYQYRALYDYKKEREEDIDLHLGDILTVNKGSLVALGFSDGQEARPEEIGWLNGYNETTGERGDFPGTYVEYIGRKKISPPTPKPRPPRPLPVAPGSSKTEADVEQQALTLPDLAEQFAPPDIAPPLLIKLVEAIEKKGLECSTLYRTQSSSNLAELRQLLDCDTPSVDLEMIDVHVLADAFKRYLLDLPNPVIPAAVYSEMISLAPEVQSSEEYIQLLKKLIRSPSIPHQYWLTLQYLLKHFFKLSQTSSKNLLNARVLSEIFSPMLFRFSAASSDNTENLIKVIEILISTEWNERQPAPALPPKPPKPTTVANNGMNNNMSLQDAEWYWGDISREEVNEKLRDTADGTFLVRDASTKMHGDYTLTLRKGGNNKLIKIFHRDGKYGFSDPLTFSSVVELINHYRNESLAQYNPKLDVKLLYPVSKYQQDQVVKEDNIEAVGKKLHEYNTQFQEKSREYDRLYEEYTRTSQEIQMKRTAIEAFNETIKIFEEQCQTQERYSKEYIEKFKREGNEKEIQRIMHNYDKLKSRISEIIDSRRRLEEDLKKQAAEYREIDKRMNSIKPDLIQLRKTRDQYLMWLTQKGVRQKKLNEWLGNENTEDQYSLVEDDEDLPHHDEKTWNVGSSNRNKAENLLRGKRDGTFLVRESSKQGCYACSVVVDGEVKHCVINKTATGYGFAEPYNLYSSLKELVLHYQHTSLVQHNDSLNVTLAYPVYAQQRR
T2 sequence (P42336 whole entry, canonical isoform): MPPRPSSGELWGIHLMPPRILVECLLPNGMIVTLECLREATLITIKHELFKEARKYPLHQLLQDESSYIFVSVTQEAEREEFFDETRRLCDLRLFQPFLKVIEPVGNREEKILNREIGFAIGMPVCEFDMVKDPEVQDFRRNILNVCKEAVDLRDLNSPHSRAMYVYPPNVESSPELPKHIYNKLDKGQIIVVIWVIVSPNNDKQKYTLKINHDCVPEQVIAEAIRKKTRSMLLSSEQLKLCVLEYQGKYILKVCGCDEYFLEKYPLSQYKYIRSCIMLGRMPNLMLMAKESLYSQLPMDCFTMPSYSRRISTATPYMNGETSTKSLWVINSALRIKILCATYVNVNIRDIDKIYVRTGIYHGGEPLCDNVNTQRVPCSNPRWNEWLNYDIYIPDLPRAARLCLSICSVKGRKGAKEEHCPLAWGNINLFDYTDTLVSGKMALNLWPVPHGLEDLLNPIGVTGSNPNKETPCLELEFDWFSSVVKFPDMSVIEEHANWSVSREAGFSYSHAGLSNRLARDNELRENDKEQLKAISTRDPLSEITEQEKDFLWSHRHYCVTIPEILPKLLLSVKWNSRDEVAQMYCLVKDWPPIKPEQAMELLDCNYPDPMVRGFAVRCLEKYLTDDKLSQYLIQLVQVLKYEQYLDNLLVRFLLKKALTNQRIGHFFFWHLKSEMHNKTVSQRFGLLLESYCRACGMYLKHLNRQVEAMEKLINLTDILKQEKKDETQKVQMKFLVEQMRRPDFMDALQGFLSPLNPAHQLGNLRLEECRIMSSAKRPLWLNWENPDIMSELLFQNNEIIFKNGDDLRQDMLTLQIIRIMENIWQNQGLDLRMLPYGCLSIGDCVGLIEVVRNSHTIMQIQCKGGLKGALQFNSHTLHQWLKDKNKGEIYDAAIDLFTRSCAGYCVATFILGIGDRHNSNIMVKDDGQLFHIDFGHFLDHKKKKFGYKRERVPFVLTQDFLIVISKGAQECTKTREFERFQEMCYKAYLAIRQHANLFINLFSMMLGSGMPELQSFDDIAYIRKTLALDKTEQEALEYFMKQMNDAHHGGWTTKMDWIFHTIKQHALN
T2 sequence (P27986 whole entry partner, canonical isoform): as the sequence (P27986 whole entry partner, canonical isoform) above

IC50 (PI3Kdelta) | Selectivity versus PI3Kalpha (PI3Kalpha) | SMILES
151 nM | >10 | CCn1c(I)nc2c(NC3CCc4nnc(C5CC5)n4C3)ncnc21 (single isomer, unassigned) [Compound 1-27, (S or R)-N-[3-cyclopropyl-5,6,7,8-tetrahydro[1,2,4]triazolo[4,3-a]pyridin-6-yl]-9-ethyl-8-iodo-9H-purin-6-amine]
1.4 nM | >10 | CCn1c(-c2ccc(C(F)(F)F)cc2)nc2c(NC3CCc4nnc(C5CC5)n4C3)ncnc21 (single isomer, unassigned) [Compound 1-28, (S or R)-N-(3-cyclopropyl-5,6,7,8-tetrahydro[1,2,4]triazolo[4,3-a]pyridin-6-yl)-9-ethyl-8-[4-(trifluoromethyl)phenyl]-9H-purin-6-amine]
49 nM | >10 | CCn1c(-c2ccc(C(F)(F)F)cc2)nc2c(NC3CCc4nnc(C5CC5)n4C3)ncnc21 (single isomer, unassigned) [Compound 1-29, (S or R)-N-(3-cyclopropyl-5,6,7,8-tetrahydro[1,2,4]triazolo[4,3-a]pyridin-6-yl)-9-ethyl-8-[4-(trifluoromethyl)phenyl]-9H-purin-6-amine]
8.3 nM | >10 | CCn1c(-c2ccc(S(C)(=O)=O)nc2)nc2c(NC3CCc4nnc(C5CC5)n4C3)ncnc21 (single isomer, unassigned) [Compound 1-30, (S or R)-N-[(6S)-3-cyclopropyl-5,6,7,8-tetrahydro[1,2,4]triazolo[4,3-a]pyridin-6-yl]-9-ethyl-8-[6-(methylsulfonyl)pyridin-3-yl]-9H-purin-6-amine]
220 nM | >10 | CCn1c(-c2cnc(C)nc2)nc2c(OC3CCc4nnc(C5CC5)n4C3)ncnc21 (single isomer, unassigned) [Compound 1-31, (S or R)-6-{[3-cyclopropyl-5,6,7,8-tetrahydro[1,2,4]triazolo[4,3-a]pyridin-6-yl]oxy}-9-ethyl-8-(2-methylpyrimidin-5-yl)-9H-purine]
4.4 nM | >10 | CCn1c(-c2cnc(C)nc2)nc2c(OC3CCc4nnc(C5CC5)n4C3)ncnc21 (single isomer, unassigned) [Compound 1-32, (S or R)-6-{[3-cyclopropyl-5,6,7,8-tetrahydro[1,2,4]triazolo[4,3-a]pyridin-6-yl]oxy}-9-ethyl-8-(2-methylpyrimidin-5-yl)-9H-purine]
35 nM | >10 | CCn1c(-c2cnc(C)nc2)nc2c(OC3CCc4nnc(C(C)C)n4C3)ncnc21 (single isomer, unassigned) [Compound 1-33, (S or R)-9-ethyl-6-{[3-(1-methylethyl)-5,6,7,8-tetrahydro[1,2,4]triazolo[4,3-a]pyridin-6-yl]oxy}-8-(2-methylpyrimidin-5-yl)-9H-purine]
4.1 nM | >10 | CCn1c(-c2cnc(C)nc2)nc2c(OC3CCc4nnc(C(C)C)n4C3)ncnc21 (single isomer, unassigned) [Compound 1-34, (S or R)-9-ethyl-6-{[3-(1-methylethyl)-5,6,7,8-tetrahydro[1,2,4]triazolo[4,3-a]pyridin-6-yl]oxy}-8-(2-methylpyrimidin-5-yl)-9H-purine]
19 nM | >10 | CCn1c(-c2cnc(C)nc2)nc2c(OC3CCc4nnc(C5CCC5)n4C3)ncnc21 (single isomer, unassigned) [Compound 1-35, (S or R)-6-{[3-cyclobutyl-5,6,7,8-tetrahydro[1,2,4]triazolo[4,3-a]pyridin-6-yl]oxy}-9-ethyl-8-(2-methylpyrimidin-5-yl)-9H-purine]
1.1 nM | >10 | CCn1c(-c2cnc(C)nc2)nc2c(OC3CCc4nnc(C5CCC5)n4C3)ncnc21 (single isomer, unassigned) [Compound 1-36, (S or R)-6-{[3-cyclobutyl-5,6,7,8-tetrahydro[1,2,4]triazolo[4,3-a]pyridin-6-yl]oxy}-9-ethyl-8-(2-methylpyrimidin-5-yl)-9H-purine]
2.9 nM | >10 | CCn1c(-c2cnc(C)nc2)nc2c(NC3CCc4[nH]nc(C5CC5)c4C3)ncnc21 (single isomer, unassigned) [Compound 2-2, (S or R)-N-[3-cyclopropyl-4,5,6,7-tetrahydro-1H-indazol-5-yl]-9-ethyl-8-(2-methylpyrimidin-5-yl)-9H-purin-6-amine]
1.8 nM | >10 | CCn1c(-c2cnc(C)nc2)nc2c(NC3CCc4[nH]nc(C(C)C)c4C3)ncnc21 (single isomer, unassigned) [Compound 2-4, (S or R)-9-ethyl-N-[3-(1-methylethyl)-4,5,6,7-tetrahydro-1H-indazol-5-yl]-8-(2-methylpyrimidin-5-yl)-9H-purin-6-amine]
4.1 nM | >10 | CCn1c(-c2cnc(C)nc2)nc2c(NC3(C)CCc4[nH]nc(C(C)C)c4C3)ncnc21 (single isomer, unassigned) [Compound 2-5, (S or R)-9-ethyl-N-[5-methyl-3-(1-methylethyl)-4,5,6,7-tetrahydro-1H-indazol-5-yl]-8-(2-methylpyrimidin-5-yl)-9H-purin-6-amine]
21 nM | >10 | CCn1c(-c2cnc(C)nc2)nc2c(NC3(C)CCc4[nH]nc(C(C)C)c4C3)ncnc21 (single isomer, unassigned) [Compound 2-6, (S or R)-9-ethyl-N-[5-methyl-3-(1-methylethyl)-4,5,6,7-tetrahydro-1H-indazol-5-yl]-8-(2-methylpyrimidin-5-yl)-9H-purin-6-amine]
1.7 nM | >10 | CCn1c(-c2ccc(C(F)(F)F)cc2)nc2c(NC3CCc4[nH]nc(C(C)C)c4C3)ncnc21 (single isomer, unassigned) [Compound 2-7, (S or R)-9-ethyl-N-[3-(1-methylethyl)-4,5,6,7-tetrahydro-1H-indazol-5-yl]-8-[4-(trifluoromethyl)phenyl]-9H-purin-6-amine]
210 nM | >10 | CCn1c(-c2ccc(C(F)(F)F)cc2)nc2c(NC3CCc4[nH]nc(C(C)C)c4C3)ncnc21 (single isomer, unassigned) [Compound 2-8, (S or R)-9-ethyl-N-[3-(1-methylethyl)-4,5,6,7-tetrahydro-1H-indazol-5-yl]-8-[4-(trifluoromethyl)phenyl]-9H-purin-6-amine]
6.1 nM | >10 | CCCn1nc(C(C)C)c2c1CCC(Nc1ncnc3c1nc(-c1cnc(C)nc1)n3CC)C2 (single isomer, unassigned) [Compound 2-10, (S or R)-9-ethyl-N-[3-(1-methylethyl)-1-propyl-4,5,6,7-tetrahydro-1H-indazol-5-yl]-8-(2-methylpyrimidin-5-yl)-9H-purin-6-amine]
2.1 nM | >10 | CCn1c(-c2cnc(C)nc2)nc2c(NC3CCc4c(c(C(C)C)nn4CCO)C3)ncnc21 (single isomer, unassigned) [Compound 2-11, (S or R)-2-[5-{[9-ethyl-8-(2-methylpyrimidin-5-yl)-9H-purin-6-yl]amino}-3-(1-methylethyl)-4,5,6,7-tetrahydro-1H-indazol-1-yl]ethanol]
